Experimental data published in US11180470B2, “Herbicidal pyrimidine compounds” (BASF SE, priority 2016, dated 2021).

Key:
ALOMY = assay: greenhouse experiment, post-emergence treatment; format: in vivo, Alopecurus myosuroides; conditions: post-emergence method, scale from 0 to 100
From the text: (§1) The culture containers used were plastic flowerpots containing loamy sand with approximately 3.0% of humus as the substrate. The seeds of the test plants were sown separately for each species.
(§2) For the post-emergence treatment, the test plants were first grown to a height of 3 to 15 cm, depending on the plant habit, and only then treated with the active ingredients which had been suspended or emulsified in water. For this purpose, the test plants were either sown directly and grown in the same containers, or they were first grown separately as seedlings and transplanted into the test containers a few days prior to treatment.
(§3) Depending on the species, the plants were kept at 10-25° C. or 20-35° C., respectively.
(§4) The test period extended over 2 to 4 weeks. During this time, the plants were tended, and their response to the individual treatments was evaluated.
(§5) Evaluation was carried out using a scale from 0 to 100. 100 means no emergence of the plants, or complete destruction of at least the aerial moieties, and 0 means no damage, or normal course of growth. A good herbicidal activity is given at values of at least 70 and a very good herbicidal activity is given at values of at least 85.
(§6) The plants used in the greenhouse experiments were of the following species: […]

AVEFA = assay: greenhouse experiment, post-emergence treatment; format: in vivo, Avena fatua; conditions: post-emergence method, scale from 0 to 100
From the text: as §1, §2, §3, §4, §5, §6

ECHCG [1] = assay: greenhouse experiment, post-emergence treatment; format: in vivo, Echinocloa crus-galli; conditions: post-emergence method, scale from 0 to 100
Protocol: The seeds of the test plants were sown separately for each species. […] For this purpose, the test plants were either sown directly and grown in the same containers, or they were first grown separately as seedlings and transplanted into the test containers a few days prior to treatment. Depending on the species, the plants were kept at 10-25° C. or 20-35° C., respectively. The test period extended over 2 to 4 weeks. During this time, the plants were tended, and their response to the individual treatments was evaluated. Evaluation was carried out using a scale from 0 to 100. 100 means no emergence of the plants, or complete destruction of at least the aerial moieties, and 0 means no damage, or normal course of growth. A good herbicidal activity is given at values of at least 70 and a very good herbicidal activity is given at values of at least 85. The plants used in the greenhouse experiments were of the following species: [table]

APESV = assay: greenhouse experiment, pre-emergence treatment; format: in vivo, Apera spica-venti; conditions: pre-emergence method, scale from 0 to 100
From the text: (§7) The seeds of the test plants were sown separately for each species. For the pre-emergence treatment, the active ingredients, which had been suspended or emulsified in water, were applied directly after sowing by means of finely distributing nozzles. The containers were irrigated gently to promote germination and growth and subsequently covered with transparent plastic hoods until the plants had rooted. This cover caused uniform germination of the test plants, unless this had been impaired by the active ingredients. Depending on the species, the plants were kept at 10-25° C. or 20-35° C., respectively. The test period extended over 2 to 4 weeks. During this time, the plants were tended, and their response to the individual treatments was evaluated. Evaluation was carried out using a scale from 0 to 100. 100 means no emergence of the plants, or complete destruction of at least the aerial moieties, and 0 means no damage, or normal course of growth. A good herbicidal activity is given at values of at least 70 and a very good herbicidal activity is given at values of at least 85. The plants used in the greenhouse experiments were of the following species: [table]

ECHCG [2] = assay: greenhouse experiment, pre-emergence treatment; format: in vivo, Echinocloa crus-galli; conditions: pre-emergence method, scale from 0 to 100
From the text: as §7

Structure (SMILES)	herbicidal activity against ALOMY (ALOMY; application rate 2000 g/ha)	herbicidal activity against ECHCG (ECHCG [1]; application rate 2000 g/ha)	herbicidal activity against APESV (APESV; application rate 2000 g/ha)	herbicidal activity against ECHCG (ECHCG [2]; application rate 2000 g/ha)	also measured
COc1ncc(-c2ncccc2Br)c(C(=O)O)n1 [Example 51]	good (A good herbicidal activity is given at values of at least 70)	good (A good herbicidal activity is given at values of at least 70)	–	–	herbicidal activity against AVEFA (AVEFA; application rate 2000 g/ha): good (A good herbicidal activity is given at values of at least 70)
Cc1sccc1-c1cnc(C2CC2)nc1C(=O)O [Example 8]	–	–	very good (a very good herbicidal activity is given at values of at least 85)	very good (a very good herbicidal activity is given at values of at least 85)	–
COC(=O)c1nc(C2CC2)ncc1-c1sccc1C [Example 4]	–	very good (a very good herbicidal activity is given at values of at least 85)	–	very good (a very good herbicidal activity is given at values of at least 85)	–
COC(=O)c1nc(C2CC2)ncc1-c1ncccc1Cl [Example 16]	–	–	–	–	herbicidal activity against ALOMY (ALOMY; application rate 1000 g/ha): very good (a very good herbicidal activity is given at values of at least 85); herbicidal activity against AVEFA (AVEFA; application rate 1000 g/ha): good (A good herbicidal activity is given at values of at least 70); herbicidal activity against ECHCG (ECHCG [1]; application rate 1000 g/ha): very good (a very good herbicidal activity is given at values of at least 85); herbicidal activity against APESV (APESV; application rate 1000 g/ha): good (A good herbicidal activity is given at values of at least 70); herbicidal activity against ECHCG (ECHCG [2]; application rate 1000 g/ha): good (A good herbicidal activity is given at values of at least 70)
O=C(O)c1nc(C2CC2)ncc1-c1ccoc1Br [Example 14]	–	–	–	–	herbicidal activity against APESV (APESV; application rate 1000 g/ha): good (A good herbicidal activity is given at values of at least 70); herbicidal activity against ECHCG (ECHCG [2]; application rate 1000 g/ha): very good (a very good herbicidal activity is given at values of at least 85)
COC(=O)c1nc(C2CC2)ncc1-c1ccsc1Cl [Example 11]	–	–	–	–	herbicidal activity against ALOMY (ALOMY; application rate 1000 g/ha): very good (a very good herbicidal activity is given at values of at least 85); herbicidal activity against AVEFA (AVEFA; application rate 1000 g/ha): good (A good herbicidal activity is given at values of at least 70); herbicidal activity against ECHCG (ECHCG [2]; application rate 1000 g/ha): very good (a very good herbicidal activity is given at values of at least 85)
O=C(O)c1nc(C2CC2)ncc1-c1ncccc1Br [Example 29]	very good (a very good herbicidal activity is given at values of at least 85)	very good (a very good herbicidal activity is given at values of at least 85)	good (A good herbicidal activity is given at values of at least 70)	good (A good herbicidal activity is given at values of at least 70)	herbicidal activity against AVEFA (AVEFA; application rate 2000 g/ha): very good (a very good herbicidal activity is given at values of at least 85)
O=C(O)c1nc(C2CC2)ncc1-c1ccoc1Cl [Example 13]	very good (a very good herbicidal activity is given at values of at least 85)	very good (a very good herbicidal activity is given at values of at least 85)	very good (a very good herbicidal activity is given at values of at least 85)	very good (a very good herbicidal activity is given at values of at least 85)	–
O=C(O)c1nc(C2CC2)ncc1-c1ncccc1F [Example 23]	very good (a very good herbicidal activity is given at values of at least 85)	very good (a very good herbicidal activity is given at values of at least 85)	very good (a very good herbicidal activity is given at values of at least 85)	very good (a very good herbicidal activity is given at values of at least 85)	–
O=C(O)c1nc(C2CC2)ncc1-c1ccncc1F [Example 37]	good (A good herbicidal activity is given at values of at least 70)	good (A good herbicidal activity is given at values of at least 70)	good (A good herbicidal activity is given at values of at least 70)	very good (a very good herbicidal activity is given at values of at least 85)	–
COC(=O)c1nc(C2CC2)ncc1-c1cscc1C [Example 7]	–	very good (a very good herbicidal activity is given at values of at least 85)	–	very good (a very good herbicidal activity is given at values of at least 85)	–
COC(=O)c1nc(C2CC2)ncc1-c1cccnc1F [Example 25]	–	–	–	–	herbicidal activity against ECHCG (ECHCG [1]; application rate 1000 g/ha): very good (a very good herbicidal activity is given at values of at least 85)
COC(=O)c1nc(C2CC2)ncc1-c1ccsc1C [Example 5]	–	–	–	very good (a very good herbicidal activity is given at values of at least 85)	–
CCc1ncc(-c2ncccc2F)c(C(=O)O)n1 [Example 50]	–	–	–	–	herbicidal activity against ECHCG (ECHCG [1]; application rate 1000 g/ha): very good (a very good herbicidal activity is given at values of at least 85)
O=C(O)c1nc(C2CC2)ncc1-c1ncc(F)cc1F [Example 36]	very good (a very good herbicidal activity is given at values of at least 85)	–	very good (a very good herbicidal activity is given at values of at least 85)	very good (a very good herbicidal activity is given at values of at least 85)	herbicidal activity against AVEFA (AVEFA; application rate 2000 g/ha): very good (a very good herbicidal activity is given at values of at least 85)
O=C(O)c1nc(C2CC2)ncc1-c1nc(C(F)(F)F)ccc1F [Example 62]	very good (a very good herbicidal activity is given at values of at least 85)	very good (a very good herbicidal activity is given at values of at least 85)	very good (a very good herbicidal activity is given at values of at least 85)	very good (a very good herbicidal activity is given at values of at least 85)	herbicidal activity against AVEFA (AVEFA; application rate 2000 g/ha): very good (a very good herbicidal activity is given at values of at least 85)
O=C(O)c1nc(C2CC2)ncc1-c1ccsc1Cl [Example 12]	–	–	–	–	herbicidal activity against ALOMY (ALOMY; application rate 1000 g/ha): very good (a very good herbicidal activity is given at values of at least 85); herbicidal activity against AVEFA (AVEFA; application rate 1000 g/ha): very good (a very good herbicidal activity is given at values of at least 85); herbicidal activity against APESV (APESV; application rate 1000 g/ha): very good (a very good herbicidal activity is given at values of at least 85); herbicidal activity against ECHCG (ECHCG [2]; application rate 1000 g/ha): very good (a very good herbicidal activity is given at values of at least 85)
CCc1ncc(-c2ncccc2Br)c(C(=O)OC)n1 [Example 43]	–	–	–	very good (a very good herbicidal activity is given at values of at least 85)	–
O=C(O)c1nc(C2CC2)ncc1-c1cccnc1Br [Example 20]	–	very good (a very good herbicidal activity is given at values of at least 85)	very good (a very good herbicidal activity is given at values of at least 85)	very good (a very good herbicidal activity is given at values of at least 85)	herbicidal activity against AVEFA (AVEFA; application rate 2000 g/ha): very good (a very good herbicidal activity is given at values of at least 85)
COC(=O)c1nc(C2CC2)ncc1-c1ccoc1Cl [Example 15]	–	–	–	good (A good herbicidal activity is given at values of at least 70)	–
Cc1cscc1-c1cnc(C2CC2)nc1C(=O)O [Example 6]	–	very good (a very good herbicidal activity is given at values of at least 85)	very good (a very good herbicidal activity is given at values of at least 85)	very good (a very good herbicidal activity is given at values of at least 85)	–
